Data: patent EP1072948B1, “Thermally processed image recording material” (FUJIFILM Corporation, priority 1999, dated 2001)

Legend:
[1] = Example 1: image storage stability 1 (developed material stored in the dark); conditions: 24 hours, relative humidity 50%
Procedure: (§1) After each thermally processed image recording material was light-exposed by a laser sensitometer (details are given below), the thermally processed image recording material was treated at 118°C for 5 seconds and then treated at 122°C for 16 seconds (heat development).
(§2) The evaluation of the image obtained was performed by using a Macbeth TD904 densitometer (visible density). The measurement results were evaluated as Dmin, sensitivity (evaluated by a relative value of a reciprocal of a ratio of exposure amounts giving a density higher than Dmin by 1.0, and the sensitivity of the thermally processed image recording material of Experiment No. 1 shown in Table 1 below was defined as 100), Dmax, and gradation (contrast) (fresh photographic properties). The contrast was expressed by a gradient of a straight line connecting the points at the densities from which the value for Dmin was subtracted, 0.5 and 1.5, with the abscissa being a logarithm of the exposure amount.

[2] = Example 1: image storage stability 2 (developed material stored under light irradiation); conditions: 24 hours, 10,000 luces, relative humidity 50%
Procedure: as §1, §2

[3] = Example 2: image storage stability 1 (developed material stored in the dark); conditions: 24 hours, relative humidity 50%
Procedure: (§3) Each light-exposed thermally processed image recording material was heat-developed by using a heat-developing apparatus as shown in Fig.1. The roller surface material of the heat development section was composed of silicone rubber, and the flat surface consisted of Teflon non-woven fabric. The heat development was performed at a transportation linear speed of 20 mm/second and a temperature of 90-110°C in the preheating section for 15 seconds (driving units of the preheating section and the heat development section were independent from each other, and speed difference as to the heat development section was adjusted to -0.5% to -1%), and 120°C for 20 seconds in the heat development section, and for 15 seconds in the gradual cooling section. The temperature precision as for the transverse direction was ±1°C.
as §2, with “0.3” for “0.5”

[4] = Example 2: image storage stability 2 (developed material stored under light irradiation); conditions: 24 hours, 10,000 luces, relative humidity 50%
Procedure: as §3
as §2, with “0.3” for “0.5”

| Image storage stability-1 (stored in dark, 60°C, 50%) Dmax ([1]; Table 2, 1.6×10^-1 mol/mol-Ag) | Image storage stability-1 (stored in dark, 60°C, 50%) Dmin ([1]; Table 2, 1.6×10^-1 mol/mol-Ag) | Image storage stability-2 (stored in light, 40°C, 50%) Dmax ([2]; Table 2, 1.6×10^-1 mol/mol-Ag) | Image storage stability-2 (stored in light, 40°C, 50%) Dmin ([2]; Table 2, 1.6×10^-1 mol/mol-Ag) | Image storage stability-1 (stored in dark, 60°C, 50%) Dmax ([3]; Table 4, 8×10^-2 mol/mol-Ag) | Image storage stability-1 (stored in dark, 60°C, 50%) Dmin ([3]; Table 4, 8×10^-2 mol/mol-Ag) | Image storage stability-2 (stored in light, 40°C, 50%) Dmax ([4]; Table 4, 8×10^-2 mol/mol-Ag) | Image storage stability-2 (stored in light, 40°C, 50%) Dmin ([4]; Table 4, 8×10^-2 mol/mol-Ag) | Image storage stability-1 (stored in dark, 60°C, 50%) Dmax ([1]; Table 1, 1.6×10^-1 mol/mol-Ag) | Image storage stability-1 (stored in dark, 60°C, 50%) Dmin ([1]; Table 1, 1.6×10^-1 mol/mol-Ag) | Image storage stability-2 (stored in light, 40°C, 50%) Dmax ([2]; Table 1, 1.6×10^-1 mol/mol-Ag) | Image storage stability-2 (stored in light, 40°C, 50%) Dmin ([2]; Table 1, 1.6×10^-1 mol/mol-Ag) | Image storage stability-1 (stored in dark, 60°C, 50%) Dmax ([3]; Table 3, 8×10^-2 mol/mol-Ag) | Image storage stability-1 (stored in dark, 60°C, 50%) Dmin ([3]; Table 3, 8×10^-2 mol/mol-Ag) | Image storage stability-2 (stored in light, 40°C, 50%) Dmax ([4]; Table 3, 8×10^-2 mol/mol-Ag) | Image storage stability-2 (stored in light, 40°C, 50%) Dmin ([4]; Table 3, 8×10^-2 mol/mol-Ag) | SMILES |
| --- | --- | --- | --- | --- | --- | --- | --- | --- | --- | --- | --- | --- | --- | --- | --- | --- |
| 3.0 | 0.17 | 3.0 | 0.17 | 3.9 | 0.09 | 4.0 | 0.08 | – | – | – | – | – | – | – | – | CCC(CC)NC(=O)c1cccc(S(=O)(=O)C(Br)(Br)Br)c1 [P'-18] |
| 2.9 | 0.42 | 3.0 | 0.40 | 3.6 | 0.44 | 3.6 | 0.23 | – | – | – | – | – | – | – | – | O=C(c1cccc(S(=O)(=O)C(Br)(Br)Br)c1)N1CCCC1 [Comparative Compound (3)] |
| 3.0 | 0.17 | 3.0 | 0.17 | 3.9 | 0.09 | 4.0 | 0.07 | – | – | – | – | – | – | – | – | CCCC(C)NC(=O)c1cccc(S(=O)(=O)C(Br)(Br)Br)c1 (centres unmarked) [P'-20] |
| – | – | – | – | – | – | – | – | 2.9 | 0.17 | 3.0 | 0.17 | 3.9 | 0.09 | 4.0 | 0.08 | COCCCNC(=O)c1cccc(S(=O)(=O)C(Br)(Br)Br)c1 [P-11] |
| 3.0 | 0.18 | 3.0 | 0.17 | 3.9 | 0.09 | 4.0 | 0.07 | – | – | – | – | – | – | – | – | CCCCOCCCNC(=O)c1cccc(S(=O)(=O)C(Br)(Br)Br)c1 [P'-15] |
| 3.0 | 0.18 | 3.0 | 0.17 | 3.9 | 0.09 | 4.0 | 0.08 | – | – | – | – | – | – | – | – | CCOCCNC(=O)c1cccc(S(=O)(=O)C(Br)(Br)Br)c1 [P'-1] |

More lines, now with the values behind:

| SMILES | Image storage stability-1 (stored in dark, 60°C, 50%) Dmax ([1]; Table 2, 1.6×10^-1 mol/mol-Ag) | Image storage stability-1 (stored in dark, 60°C, 50%) Dmin ([1]; Table 2, 1.6×10^-1 mol/mol-Ag) | Image storage stability-2 (stored in light, 40°C, 50%) Dmax ([2]; Table 2, 1.6×10^-1 mol/mol-Ag) | Image storage stability-2 (stored in light, 40°C, 50%) Dmin ([2]; Table 2, 1.6×10^-1 mol/mol-Ag) | Image storage stability-1 (stored in dark, 60°C, 50%) Dmax ([3]; Table 4, 8×10^-2 mol/mol-Ag) | Image storage stability-1 (stored in dark, 60°C, 50%) Dmin ([3]; Table 4, 8×10^-2 mol/mol-Ag) | Image storage stability-2 (stored in light, 40°C, 50%) Dmax ([4]; Table 4, 8×10^-2 mol/mol-Ag) | Image storage stability-2 (stored in light, 40°C, 50%) Dmin ([4]; Table 4, 8×10^-2 mol/mol-Ag) | Image storage stability-1 (stored in dark, 60°C, 50%) Dmax ([1]; Table 1, 1.6×10^-1 mol/mol-Ag) | Image storage stability-1 (stored in dark, 60°C, 50%) Dmin ([1]; Table 1, 1.6×10^-1 mol/mol-Ag) | Image storage stability-2 (stored in light, 40°C, 50%) Dmax ([2]; Table 1, 1.6×10^-1 mol/mol-Ag) | Image storage stability-2 (stored in light, 40°C, 50%) Dmin ([2]; Table 1, 1.6×10^-1 mol/mol-Ag) | Image storage stability-1 (stored in dark, 60°C, 50%) Dmax ([3]; Table 3, 8×10^-2 mol/mol-Ag) | Image storage stability-1 (stored in dark, 60°C, 50%) Dmin ([3]; Table 3, 8×10^-2 mol/mol-Ag) | Image storage stability-2 (stored in light, 40°C, 50%) Dmax ([4]; Table 3, 8×10^-2 mol/mol-Ag) | Image storage stability-2 (stored in light, 40°C, 50%) Dmin ([4]; Table 3, 8×10^-2 mol/mol-Ag) |
| --- | --- | --- | --- | --- | --- | --- | --- | --- | --- | --- | --- | --- | --- | --- | --- | --- |
| CCCCCCCCCCCCCCCCNC(=O)c1cccc(S(=O)(=O)C(Br)(Br)Br)c1 [Comparative Compound (1)] | 2.8 | 0.54 | 2.8 | 0.43 | 3.6 | 0.35 | 3.4 | 0.22 | – | – | – | – | – | – | – | – |
| CCCCCCOCCN(CC)C(=O)c1cccc(S(=O)(=O)C(Br)(Br)Br)c1 [Comparative Compound 1] | – | – | – | – | – | – | – | – | 2.1 | 0.17 | 2.5 | 0.17 | 2.7 | 0.08 | 3.2 | 0.08 |
| CCCCCCCCCCCCN(CCCCCCCCCCCC)C(=O)c1cc(S(C)(=O)=O)ccc1S(=O)(=O)C(Br)(Br)Br [Comparative Compound (5)] | 2.8 | 0.60 | 2.9 | 0.50 | 3.7 | 0.43 | 3.7 | 0.29 | – | – | – | – | – | – | – | – |
| CCCCCCCCN(CCCCCCCC)S(=O)(=O)c1ccc(S(=O)(=O)C(Br)(Br)Br)cc1 [Comparative Compound (4)] | 2.8 | 0.59 | 2.9 | 0.47 | 3.7 | 0.39 | 3.6 | 0.25 | – | – | – | – | – | – | – | – |
| CCNC(=O)c1ccccc1S(=O)(=O)C(Br)(Br)Br [Comparative Compound 3] | – | – | – | – | – | – | – | – | 2.9 | 0.41 | 3.0 | 0.25 | 4.1 | 0.35 | 4.1 | 0.15 |
| CCCCNS(=O)(=O)c1cccc(S(=O)(=O)C(Br)(Br)Br)c1 [P-18] | – | – | – | – | – | – | – | – | 3.0 | 0.20 | 3.0 | 0.20 | – | – | – | – |
